# In publication PMC6272646, “Understanding the Physicochemical Properties of Mitragynine, a Principal Alkaloid of Mitragyna speciosa, for Preclinical Evaluation” (Molecules, 2015):
# Like-named read-outs stand apart in the source and are kept apart here.
# Tests used:
# [1] = Equilibrium solubility in water and buffers (HPLC-UV); assay type: physicochemical
# Procedure: (§1) The HPLC system consisted of a Jasco delivery pump (Tokyo, Japan) equipped with autosampler connected to a Waters 2487 detector (Milford, MA, USA) coupled to Jasco Chromnav software (Version 2.0, Tokyo, Japan). Chromatographic separation was performed on a C8 Agilent Eclipse plus (4.6 mm i.d. × 250 mm, 5-μm particle size; Apple Valley, MN, USA). The HPLC-UV method was adapted from our previous study and revalidated for the present HPLC system. The method was employed to quantify mitragynine in partition coefficient, stability, dissolution and solubility studies.
# For solubility studies, an excess of mitragynine was added to 1.0 mL each of distilled water or buffers at pH 4, 7 and 9. The test tubes were placed in a water bath shaker at 37 degrees Celsius at 100 cycles/min for 48 h until equilibrium. The samples were centrifuged at 3000 rpm for 5 min and supernatant was taken for quantification of mitragynine by HPLC-UV. For stability studies, analogous buffers were used, but they were spiked with mitragynine in acetonitrile to give a concentration of 20 µg/mL (organic content was kept below 1%). A 0.1 mL aliquot was collected from each buffer system at intervals of 0, 0.5, 6.0 and 24.0 h for determination of mitragynine. Mitragynine concentrations were expressed as percentage recovered. All experiments were performed in triplicates.
# rodents = system: rodents; parameters: method as in PMID 4626477; conditions: cited from earlier work
# opiate receptor = system: opiate receptor; parameters: method as in ref 29 = [29]; 29. Watanabe K. Yano S. Horie S. Yamamoto L.T. Takayama H. Aimi N. Sakai S. Ponglux D. Tongroach P. Shan J. Pharmacological properties of some structurally related indole alkaloids contained in the As; conditions: cited from earlier work
# [2] = Stability in simulated intestinal fluid (SIF, with enzymes); conditions: for Concentration Found in SIF: SIF pH 6.8 with pancreatin
# [3] = n-octanol/water partition coefficient (logP, logD); assay type: physicochemical; conditions: for logD: read-out: Calculated n-octanol/water partition coefficient (logD)
# Procedure: as §1
# Lipophilicity of mitragynine was determined by n-octanol/water partition coefficient (P) using the method described by Low et al.. The distribution coefficient (log D) was determined in a similar manner to logP but instead of using water, buffers with a specific pH (4, 7, and 9) were used.
# rats [4] = system: rats; parameters: method as in Macko et al, 15; conditions: mitragynine salt solution, ref Macko et al, 15; cited from earlier work
# rats [5] = system: rats; parameters: method as in PMID 25262913; conditions: cited from earlier work
structure (smiles),measurement,setting,value
CC[C@@H]1CN2CCc3c([nH]c4cccc(OC)c34)[C@@H]2C[C@@H]1/C(=C\OC)C(=O)OC [mitragynine],solubility at 48 h,"[1]; aqueous buffer, thermodynamic from solid, buffer pH 4, 37 °C",3500 ± 10 µg/mL
same,solubility at 48 h,"[1]; aqueous buffer, thermodynamic from solid, buffer pH 7, 37 °C",88.9 ± 1.6 µg/mL
same,solubility at 48 h,"[1]; aqueous buffer, thermodynamic from solid, buffer pH 9, 37 °C",18.7 ± 0.4 µg/mL
same,solubility at 48 h,"[1]; distilled water, thermodynamic from solid, water, 37 °C",64.6 ± 1.2 µg/mL
same,solubility at 48 h,"[1]; distilled water, water, 37 °C",< 100 µg/mL
same,dose levels with no toxicity,rodents,800 to 900 mg/kg
same,"antinociceptive effect, potency compared with M. speciosa crude extract",opiate receptor,less potent than the M. speciosa crude extract
same,Concentration Found in SIF,"[2]; 0 min, 37 °C",6.70 ± 0.60 µg/mL
same,RD (relative difference vs time 0) in SIF,[2]; 10 min,−0.07%
same,Concentration Found in SIF,"[2]; 10 min, 37 °C",6.69 ± 0.63 µg/mL
same,Concentration Found in SIF,"[2]; 20 min, 37 °C",6.56 ± 0.67 µg/mL
same,RD (relative difference vs time 0) in SIF,[2]; 30 min,4.43%
same,Concentration Found in SIF,"[2]; 30 min, 37 °C",6.99 ± 0.21 µg/mL
same,RD (relative difference vs time 0) in SIF,[2]; 40 min,4.94%
same,Concentration Found in SIF,"[2]; 40 min, 37 °C",7.03 ± 0.13 µg/mL
same,RD (relative difference vs time 0) in SIF,[2]; 50 min,3.49%
same,Concentration Found in SIF,"[2]; 50 min, 37 °C",6.93 ± 0.13 µg/mL
same,RD (relative difference vs time 0) in SIF,[2]; 60 min,2.49%
same,Concentration Found in SIF,"[2]; 60 min, 37 °C",6.86 ± 0.01 µg/mL
same,RD (relative difference vs time 0) in SIF,[2]; 120 min,1.31%
same,Concentration Found in SIF,"[2]; 120 min, 37 °C",6.78 ± 0.79 µg/mL
same,RD (relative difference vs time 0) in SIF,[2]; 180 min,3.46%
same,Concentration Found in SIF,"[2]; 180 min, 37 °C",6.93 ± 0.77 µg/mL
same,stability in SIF (in words),"[2]; SIF pH 6.8, 3 h, 37 °C",considered stable
same,logD,"[3]; n-octanol/buffer pH 4, pH 4",0.78
same,logD,"[3]; n-octanol/buffer pH 7, pH 7",1.73
same,logD,"[3]; n-octanol/buffer pH 9, pH 9",1.56
same,logP,"[3]; n-octanol/water, read-out: Calculated n-octanol/water partition coefficient (logP)",1.7
same,Mitragynine Content in buffer layer,[3]; octanol / buffer pH 4,2.98 µg/mL
same,Mitragynine Content in octanol layer,[3]; octanol / buffer pH 4,17.97 µg/mL
same,Mitragynine Content in buffer layer,[3]; octanol / buffer pH 7,0.38 µg/mL
same,Mitragynine Content in octanol layer,[3]; octanol / buffer pH 7,20.54 µg/mL
same,Mitragynine Content in buffer layer,[3]; octanol / buffer pH 9,0.51 µg/mL
same,Mitragynine Content in octanol layer,[3]; octanol / buffer pH 9,18.45 µg/mL
same,Mitragynine Content in aqueous layer,[3]; octanol / water,0.42 µg/mL
same,Mitragynine Content in octanol layer,[3]; octanol / water,20.74 µg/mL
same,dose up to which no adverse reactions were reported,rats [4],806 mg/kg
same,addictive potential effects,"rats [5]; i.p. in Tween 80, high (30 mg/kg) and moderate (10 mg/kg) doses",observed
same,addictive potential effects,"rats [5]; i.p. in Tween 80, mild (5 mg/kg) and low (1 mg/kg) doses",absent
